Test [1] has as its target T1, wild-type PDE5 catalytic domain (Homo sapiens, UniProt O76074).
T1 construct: Construction and Expression of PDE5 Wild-type Catalytic Domain (E534-N875); made in house; host or cells: baculovirus / insect cells (pFastbac1; Sf-9 for virus stocks, T.ni High5 named for expression)
The test can be described thus: X-ray structure of wild-type PDE5 catalytic domain complexed with Sildenafil. As to conditions: X-ray structure of wild-type PDE5 complex; binding in the active site, blocking access for the cGMP substrate.

In test [2] the target is T2, PDE5* (loop-swapped PDE5 catalytic domain) (Homo sapiens, UniProt O76074, C677D/E669N/H670S/H678E/I665L/I680V/INS676N/L675M/M681L/N661S/P671E/Q666I/Q674L/R658P/R667N/S663Q/S668T/Y664F).
T2 construct: Construction and Expression of PDE5* (E534-E858) in E. coli; made in house; host or cells: E. coli BL21 (DE3), pET21C
The test can be described thus: Soaking of inhibitor into C2 crystal form of PDE5* and X-ray structure determination. It counts as binding. The protocol:
Plate-shaped crystals of apo PDE5* obtained according to methods detailed in EXAMPLE 6 were transferred to a 20 μl drop of 0.1M sodium HEPES and 20% Polyethylene glycol 4000 in square microbridges. To this, 1.0 μl of a 20 mg/ml concentration of inhibitor dissolved in DMSO was added. Crystals were then transferred to a solution of 0.1M sodium HEPES pH 7.4, 20% Polyethylene glycol 4000 with 15% glycerol and then frozen during X-ray data collection.
X-ray diffraction data were collected with an RaxisIV image plate detector on an in-house FR-D rotating anode (Rigaku), with Osmic mirrors (MSC). All data were processed using the HKL package (Otwinowski & Minor, 1997).
Refinement was carried out in the resolution range 30-1.5 Å using CNX (Brünger et al., 1998) with the “mlf” maximum likelihood target function. Partial structure factors from a flat bulk-solvent model and anisotropic B-factor correction were supplied throughout the refinement.

In the case of `CCCc1nn(C)c2c(=O)[nH]c(-c3cc(S(=O)(=O)N4CCN(C)CC4)ccc3OCC)nc12` [Sildenafil, 5-[2-ethoxy-5-(4-methyl-1-piperazinylsulphonyl)phenyl]-1-methyl-3-n-propyl-1,6-dihydro-7H-pyrazolo[4,3-d]pyrimidin-7-one], the mode of inhibition result in test [1] is recorded as “competitive”.
As to `CCCc1nn(C)c2c(=O)[nH]c(-c3ccccc3OCC)nc12` [UK-088,800, 5-(2-ethoxyphenyl)-1-methyl-3-propyl-1,6-dihydro-7H-pyrazolo[4,3-d]pyrimidin-7-one], in test [2] (PDE5* C2 crystal soaked with ligand, map contoured at 2.5σ, phases prior to incorporation of ligand), the “(fo-fc) electron density map at the active site region” value is on record as “clearly featured peak”. For the same molecule, the mode of inhibition entry in test [2] (X-ray structure of PDE5* complex, binding in the active site, blocking access for the cGMP substrate) is on record as “competitive”.
